The test system of test [1] is HC11 cells. In words: Polysomal distribution of capped luciferase mRNA in HC11 cells. The conditions noted are these: HC11 cells lysed 4 h after electroporation, sucrose gradient. The format is cell-based, mouse. The procedure:
To separate ribosomal subunits and initiation complexes, 4×10^6 HC11 cells were treated for 2 min with ice-cold PBS containing 0.1 mg/ml cycloheximide, washed twice with the same medium, and lysed in 600 μl of 0.3 M NaCl, 15 mM Tris-HCl (pH 7.6), 15 mM MgCl2, 1% Triton X-100, 1 mg/ml heparin, and 0.1 mg/ml cycloheximide. After centrifugation at 14,000×g for 10 min, the supernatant was layered on a 15-45% sucrose gradient in the same buffer but lacking Triton X-100 and centrifuged in a Beckman SW41 Ti rotor at 38,000 rpm at 4° C. for 2 h. Gradients were fractionated with continuous monitoring of absorbance at 260 nm. RNA from each fraction (1 ml) was isolated and analyzed by real time PCR.
We used an independent method to validate the observation that m2^7,2′-OGppspG-capped mRNAs were translated more efficiently, namely, their polysomal distribution (FIGS. 9A-9E). An increase in the rate of initiation relative to elongation or termination results in a shift of the mRNA from lighter to heavier polysomes. See H. Lodish, “Model for the regulation of mRNA translation applied to haemoglobin synthesis,” Nature, vol. 251, pp. 385-388 (1974). The type of cap structure is not expected to affect the rate of elongation. Thus, a shift to higher polysomes indicates faster initiation.
Luc A60 mRNA capped with m^7 Gp3G, m2^7,2′-OGp3G or m2^7,2′-OGppspG (D2) was electroporated into HC11 cells. […]

The subject of test [2] is rabbit reticulocyte lysate. Briefly: Cell-free translation of capped Luc-A60 mRNA in the rabbit reticulocyte lysate system. The format is biochemical. The conditions noted are these: data not shown. From the text:
Luc-A60 mRNA capped with m2^7,2′-OGppspG (D1) and m2^7,2′-OGppspG (D2) was translated 2.8- and 5.1-fold more efficiently than m^7Gp3G-capped mRNA, respectively (FIG. 8 and Table 2). For cell-free translation in the rabbit reticulocyte lysate system, Luc-A60 mRNAs capped with m2^7,2′-OGppspG (D1) and m2^7,2′-OGppspG (D2) were translated only 2.3-fold more efficiently than Luc-A60 mRNA capped with m^7Gp3G (data not shown).

In test [3] the test system is HC11 cells. Briefly: Time course of luciferase expression after nucleoporation of HC11 cells. The format is cell-based, mouse. As to conditions: luciferase activity up to 10 h after nucleoporation, normalized for Luc-A60 delivered. The procedure:
Two methods, electroporation and nucleoporation, were used to deliver RNA into cells. In case of electroporation, 5 μg of RNA were introduced into 10^7 HC11 cells in a total volume 400 μl of serum-reduced RPMI 1640 medium in a Gene pulser cuvette (4 mm gap) with a Bio-Rad Genepulser™ set at 0.22 kV and 960 μF. Following discharge, the cells were washed twice with PBS, centrifuged for 2 min 300×g at room temperature, resuspended in prewarmed complete medium, and placed at 37° C. Nucleoporation was performed with an Amaxa Nucleofector II (Amaxa Biosystems) in accordance with manufacture's recommendations. One microgram of RNA was introduced into 10^6 HC11 cells with Nucleofector Solution V and the set of recommended regimens (program T-024).
For cytoplasmic RNA extraction, 2×10^5 cells were lysed in 175 μl of lysis buffer (50 mM Tris-HCl, pH 8.0, 140 mM NaCl, 1.5 mM MgCl2, 0.5% (v/v) Igepal (Sigma), and 1 mM dithiothreitol). […] Luciferase activity of cell extracts was measured according to the manufacturer's protocol (Promega).
We also determined the overall accumulation of luciferase, as measured by its enzymatic activity, as a function of time for mRNAs capped with m2^7,2′-OGp3G, m2^7,2′-OGppspG (D1), and m2^7,2′-OGppspG (D2). […] Luciferase activity measured in the supernatant was normalized for the amount of Luc-A60 delivered into the cells. […]

Consider `CO[C@@H]1[C@H](O)[C@@H](COP(=O)(O)OP(=O)([O-])OP(=O)(O)OC[C@H]2O[C@@H](n3cnc4c(=O)[nH]c(N)nc43)[C@H](O)[C@@H]2O)O[C@H]1n1c[n+](C)c2c(O)nc(N)nc21` [m2^7,2′-OGpppG, reference compound], for which, in the test on HC11 cells [1], the “polysomal distribution of capped Luc A60 mRNA” value is given as “shifted to higher polysomes”.

For the compound m2^7,2′-OGppspG (D1) [Compound 5a], in test [2], the “translational efficiency relative to m^7Gp3G-capped Luc-A60 mRNA” value came out at 2.3 fold. Consider m2^7,2′-OGppspG (D2) [Compound 5b], for which, in test [2], the “translational efficiency relative to m^7Gp3G-capped Luc-A60 mRNA” value was determined as 2.3 fold. Moreover, the “polysomal distribution of capped Luc A60 mRNA” value with HC11 cells [1] is on record as “shifted to even higher polysomes”. For the same compound, the “overall accumulation of luciferase” value in the test on HC11 cells [3] is “The most luciferase accumulated”.

The record behind these values is patent US8153773B2, “Synthesis and use of anti-reverse phosphorothioate analogs of the messenger RNA cap” (Board of Supervisors of Louisiana State University and …, priority 2007, dated 2012).
